In ChEMBL document CHEMBL4311942, “Design of Trp-Rich Dodecapeptides with Broad-Spectrum Antimicrobial Potency and Membrane-Disruptive Mechanism” (J Med Chem, 2019):
In brackets after ≈: the same amount, converted by molar mass. Where a SMILES comes first, the peptide text is derived from it.

Legend:
[1] = system: Staphylococcus aureus; experiment: Antibacterial activity against Staphylococcus aureus ATCC 25923 incubated for 18 to 24 hrs by broth microdilution method; type: functional
[2] = system: Staphylococcus aureus; experiment: Antibacterial activity against Staphylococcus aureus 11011 incubated for 18 to 24 hrs by broth microdilution method; type: functional
[3] = system: Staphylococcus aureus; experiment: Antibacterial activity against Staphylococcus aureus ATCC 29213 incubated for 18 to 24 hrs by broth microdilution method; type: functional
[4] = system: Erythrocyte; experiment: Haemolytic activity in human erythrocytes assessed as lowest concentration causing 5% hemolysis after 1 hr; type: ADME, cell-based
[5] = system: Escherichia coli; experiment: Antibacterial activity against Escherichia coli 20411 clinical isolate incubated for 18 to 24 hrs by broth microdilution method; type: functional
[6] = Cytotoxicity against mouse RAW264.7 cells assessed as cell survival at < 32 uM after 24 hrs by MTT assay; type: cell-based; conditions: read-out: Activity
[7] = system: Staphylococcus epidermidis; experiment: Antibacterial activity against Staphylococcus epidermidis ATCC 12228 incubated for 18 to 24 hrs by broth microdilution method; type: functional
[8] = system: Escherichia coli; experiment: Antibacterial activity against Escherichia coli ATCC 25922 incubated for 18 to 24 hrs by broth microdilution method; type: functional
[9] = system: Escherichia coli; experiment: Antibacterial activity against Escherichia coli UB1005 incubated for 18 to 24 hrs by broth microdilution method; type: functional
[10] = system: Salmonella typhimurium; experiment: Antibacterial activity against Salmonella enterica serovar typhimurium C77-31 incubated for 18 to 24 hrs by broth microdilution method; type: functional, Salmonella enterica subsp. enterica serovar Typhimurium
[11] = system: Acinetobacter baumannii; experiment: Antibacterial activity against Acinetobacter baumannii AB1902 clinical isolate incubated for 18 to 24 hrs by broth microdilution method; type: functional
[12] = system: Acinetobacter baumannii; experiment: Antibacterial activity against Acinetobacter baumannii AB1901 clinical isolate incubated for 18 to 24 hrs by broth microdilution method; type: functional
[13] = Therapeutic index, ratio of MHC for human RBC to geometric mean of peptide MIC for Escherichia coli ATCC 25922; type: toxicity; conditions: pooled result: one value given for 6 cell lines, strains, targets or settings, read-out: TI
[14] = system: Pseudomonas aeruginosa; experiment: Antibacterial activity against Pseudomonas aeruginosa 25349 clinical isolate incubated for 18 to 24 hrs by broth microdilution method; type: functional

Row | MIC [1] [µM] | MIC [2] [µM] | MIC [3] [µM] | MIC [5] [µM] | MIC [7] [µM] | MIC [8] [µM] | MIC [9] [µM] | MIC [10] [µM] | MIC [11] [µM] | MIC [12] [µM] | MIC [14] [µM] | SMILES | MHC [4] [µM] | viability at 24 h [6] [%] | selectivity ratio [13]
1 | 2 (≈ 3.37 µg/mL) | 2 (≈ 3.37 µg/mL) | 2 (≈ 3.37 µg/mL) | 2 (≈ 3.37 µg/mL) | 2 (≈ 3.37 µg/mL) | 2 (≈ 3.37 µg/mL) | 2 (≈ 3.37 µg/mL) | 2 (≈ 3.37 µg/mL) | 2 (≈ 3.37 µg/mL) | 1 (≈ 1.68 µg/mL) | 4 (≈ 6.74 µg/mL) | CC[C@H](C)[C@H](NC(=O)[C@H](CCCCN)NC(=O)[C@H](Cc1c[nH]c2ccccc12)NC(=O)[C@H](CCCCN)NC(=O)[C@@H](NC(=O)[C@H](CCCCN)NC(=O)[C@H](Cc1c[nH]c2ccccc12)NC(=O)[C@H](CCCCN)NC(=O)[C@@H](NC(=O)[C@H](CCCCN)NC(=O)[C@@H](N)Cc1c[nH]c2ccccc12)[C@@H](C)CC)[C@@H](C)CC)C(=O)N[C@@H](CCCCN)C(N)=O (H-WKIKWKIKWKIK-NH2) | 64 | > 90 | 32
2 | 2 (≈ 3.7 µg/mL) | 2 (≈ 3.7 µg/mL) | 2 (≈ 3.7 µg/mL) | 2 (≈ 3.7 µg/mL) | 2 (≈ 3.7 µg/mL) | 4 (≈ 7.41 µg/mL) | 4 (≈ 7.41 µg/mL) | 2 (≈ 3.7 µg/mL) | 4 (≈ 7.41 µg/mL) | 2 (≈ 3.7 µg/mL) | 8 (≈ 14.8 µg/mL) | C[C@@H](O)[C@H](NC(=O)[C@H](CCCCN)NC(=O)[C@H](Cc1c[nH]c2ccccc12)NC(=O)[C@H](CCCNC(=N)N)NC(=O)[C@H](Cc1ccccc1)NC(=O)[C@H](CCCNC(=N)N)NC(=O)[C@@H](N)Cc1c[nH]c2ccccc12)C(=O)N[C@@H](CCCNC(=N)N)C(=O)N[C@@H](Cc1c[nH]c2ccccc12)C(=O)N[C@@H](CCCNC(=N)N)C(=O)N[C@@H](Cc1ccccc1)C(=O)N[C@@H](CCCCN)C(N)=O (H-WRFRWKTRWRFK-NH2) | > 128 | > 90 | 102
3 | 2 (≈ 3.57 µg/mL) | 2 (≈ 3.57 µg/mL) | 2 (≈ 3.57 µg/mL) | 2 (≈ 3.57 µg/mL) | 2 (≈ 3.57 µg/mL) | 4 (≈ 7.14 µg/mL) | 2 (≈ 3.57 µg/mL) | 2 (≈ 3.57 µg/mL) | 2 (≈ 3.57 µg/mL) | 2 (≈ 3.57 µg/mL) | 8 (≈ 14.3 µg/mL) | CC[C@H](C)[C@H](NC(=O)[C@H](CCCNC(=N)N)NC(=O)[C@H](Cc1c[nH]c2ccccc12)NC(=O)[C@H](CCCNC(=N)N)NC(=O)[C@@H](NC(=O)[C@H](CCCCN)NC(=O)[C@H](Cc1c[nH]c2ccccc12)NC(=O)[C@H](CCCNC(=N)N)NC(=O)[C@@H](NC(=O)[C@H](CCCNC(=N)N)NC(=O)[C@@H](N)Cc1c[nH]c2ccccc12)[C@@H](C)CC)[C@@H](C)O)C(=O)N[C@@H](CCCCN)C(N)=O (H-WRIRWKTRWRIK-NH2) | > 128 | > 90 | 114
4 | 2 (≈ 3.7 µg/mL) | 1 (≈ 1.85 µg/mL) | 1 (≈ 1.85 µg/mL) | 2 (≈ 3.7 µg/mL) | 2 (≈ 3.7 µg/mL) | 4 (≈ 7.41 µg/mL) | 2 (≈ 3.7 µg/mL) | 2 (≈ 3.7 µg/mL) | 4 (≈ 7.41 µg/mL) | 2 (≈ 3.7 µg/mL) | 4 (≈ 7.41 µg/mL) | CC(C)C[C@H](NC(=O)[C@H](CCCNC(=N)N)NC(=O)[C@H](Cc1c[nH]c2ccccc12)NC(=O)[C@H](CCCNC(=N)N)NC(=O)[C@H](CC(C)C)NC(=O)[C@H](CCCNC(=N)N)NC(=O)[C@H](Cc1c[nH]c2ccccc12)NC(=O)[C@H](CCCNC(=N)N)NC(=O)[C@H](CC(C)C)NC(=O)[C@H](CCCNC(=N)N)NC(=O)[C@@H](N)Cc1c[nH]c2ccccc12)C(=O)N[C@@H](CCCNC(=N)N)C(N)=O (H-WRLRWRLRWRLR-NH2) | > 128 | > 90 | 128
5 | 2 (≈ 3.68 µg/mL) | 2 (≈ 3.68 µg/mL) | 2 (≈ 3.68 µg/mL) | 2 (≈ 3.68 µg/mL) | 2 (≈ 3.68 µg/mL) | 4 (≈ 7.36 µg/mL) | 4 (≈ 7.36 µg/mL) | 4 (≈ 7.36 µg/mL) | 4 (≈ 7.36 µg/mL) | 4 (≈ 7.36 µg/mL) | 16 (≈ 29.4 µg/mL) | CC(C)C[C@H](NC(=O)[C@H](CCCNC(=N)N)NC(=O)[C@H](Cc1c[nH]c2ccccc12)NC(=O)[C@H](CCCNC(=N)N)NC(=O)[C@@H](NC(=O)[C@H](CCCNC(=N)N)NC(=O)[C@H](Cc1c[nH]c2ccccc12)NC(=O)[C@H](CCCNC(=N)N)NC(=O)[C@H](CC(C)C)NC(=O)[C@H](CCCNC(=N)N)NC(=O)[C@@H](N)Cc1c[nH]c2ccccc12)[C@@H](C)O)C(=O)N[C@@H](CCCNC(=N)N)C(N)=O (H-WRLRWRTRWRLR-NH2) | > 128 | > 90 | 90.5
6 | 8 (≈ 14.5 µg/mL) | 4 (≈ 7.26 µg/mL) | 4 (≈ 7.26 µg/mL) | 2 (≈ 3.63 µg/mL) | 8 (≈ 14.5 µg/mL) | 4 (≈ 7.26 µg/mL) | 4 (≈ 7.26 µg/mL) | 4 (≈ 7.26 µg/mL) | 32 (≈ 58.1 µg/mL) | 32 (≈ 58.1 µg/mL) | > 64 | C[C@@H](O)[C@H](NC(=O)[C@H](CCCNC(=N)N)NC(=O)[C@H](Cc1c[nH]c2ccccc12)NC(=O)[C@H](CCCNC(=N)N)NC(=O)[C@@H](NC(=O)[C@H](CCCNC(=N)N)NC(=O)[C@H](Cc1c[nH]c2ccccc12)NC(=O)[C@H](CCCNC(=N)N)NC(=O)[C@@H](NC(=O)[C@H](CCCNC(=N)N)NC(=O)[C@@H](N)Cc1c[nH]c2ccccc12)[C@@H](C)O)[C@@H](C)O)C(=O)N[C@@H](CCCNC(=N)N)C(N)=O (H-WRTRWRTRWRTR-NH2) | > 128 | > 90 | 50.8

The remaining lines, values behind:

Row | SMILES | MIC [1] [µM] | MIC [2] [µM] | MIC [3] [µM] | MIC [5] [µM] | MIC [7] [µM] | MIC [8] [µM] | MIC [9] [µM] | MIC [10] [µM] | MIC [11] [µM] | MIC [12] [µM] | MIC [14] [µM] | MHC [4] [µM] | viability at 24 h [6] [%] | selectivity ratio [13]
7 | CC(C)C[C@H](NC(=O)[C@H](CCCCN)NC(=O)[C@H](Cc1c[nH]c2ccccc12)NC(=O)[C@H](CCCCN)NC(=O)[C@H](CC(C)C)NC(=O)[C@H](CCCCN)NC(=O)[C@H](Cc1c[nH]c2ccccc12)NC(=O)[C@H](CCCCN)NC(=O)[C@H](CC(C)C)NC(=O)[C@H](CCCCN)NC(=O)[C@@H](N)Cc1c[nH]c2ccccc12)C(=O)N[C@@H](CCCCN)C(N)=O (H-WKLKWKLKWKLK-NH2) | 2 (≈ 3.37 µg/mL) | 2 (≈ 3.37 µg/mL) | 2 (≈ 3.37 µg/mL) | 2 (≈ 3.37 µg/mL) | 2 (≈ 3.37 µg/mL) | 4 (≈ 6.74 µg/mL) | 4 (≈ 6.74 µg/mL) | 2 (≈ 3.37 µg/mL) | 4 (≈ 6.74 µg/mL) | 2 (≈ 3.37 µg/mL) | 4 (≈ 6.74 µg/mL) | 128 | > 90 | 50.8
8 | CC(C)[C@H](NC(=O)[C@H](CCCCN)NC(=O)[C@H](Cc1c[nH]c2ccccc12)NC(=O)[C@H](CCCCN)NC(=O)[C@@H](NC(=O)[C@H](CCCCN)NC(=O)[C@H](Cc1c[nH]c2ccccc12)NC(=O)[C@H](CCCCN)NC(=O)[C@@H](NC(=O)[C@H](CCCCN)NC(=O)[C@@H](N)Cc1c[nH]c2ccccc12)C(C)C)C(C)C)C(=O)N[C@@H](CCCCN)C(N)=O (H-WKVKWKVKWKVK-NH2) | 2 (≈ 3.28 µg/mL) | 2 (≈ 3.28 µg/mL) | 1 (≈ 1.64 µg/mL) | 1 (≈ 1.64 µg/mL) | 2 (≈ 3.28 µg/mL) | 2 (≈ 3.28 µg/mL) | 2 (≈ 3.28 µg/mL) | 2 (≈ 3.28 µg/mL) | 1 (≈ 1.64 µg/mL) | 2 (≈ 3.28 µg/mL) | 4 (≈ 6.57 µg/mL) | > 128 | > 90 | 144
9 | N=C(N)NCCC[C@H](NC(=O)[C@H](Cc1ccccc1)NC(=O)[C@H](CCCNC(=N)N)NC(=O)[C@H](Cc1c[nH]c2ccccc12)NC(=O)[C@H](CCCNC(=N)N)NC(=O)[C@H](Cc1ccccc1)NC(=O)[C@H](CCCNC(=N)N)NC(=O)[C@H](Cc1c[nH]c2ccccc12)NC(=O)[C@H](CCCNC(=N)N)NC(=O)[C@H](Cc1ccccc1)NC(=O)[C@H](CCCNC(=N)N)NC(=O)[C@@H](N)Cc1c[nH]c2ccccc12)C(N)=O (H-WRFRWRFRWRFR-NH2) | 1 (≈ 1.95 µg/mL) | 2 (≈ 3.91 µg/mL) | 1 (≈ 1.95 µg/mL) | 4 (≈ 7.82 µg/mL) | 2 (≈ 3.91 µg/mL) | 8 (≈ 15.6 µg/mL) | 4 (≈ 7.82 µg/mL) | 2 (≈ 3.91 µg/mL) | 2 (≈ 3.91 µg/mL) | 2 (≈ 3.91 µg/mL) | 8 (≈ 15.6 µg/mL) | 64 | > 90 | 28.6
10 | CC[C@H]1OC(=O)[C@H](C)[C@@H](O[C@H]2C[C@@](C)(OC)[C@@H](O)[C@H](C)O2)[C@H](C)[C@@H](O[C@@H]2O[C@H](C)C[C@H](N(C)C)[C@H]2O)[C@](C)(O)C[C@@H](C)C(=O)[C@H](C)[C@@H](O)[C@]1(C)O [ERYTHROMYCIN] | 0.5 (≈ 0.367 µg/mL) | 1 (≈ 0.734 µg/mL) | 0.5 (≈ 0.367 µg/mL) | 64 (≈ 47 µg/mL) | 0.25 (≈ 0.183 µg/mL) | 32 (≈ 23.5 µg/mL) | 32 (≈ 23.5 µg/mL) | 32 (≈ 23.5 µg/mL) | > 128 | > 128 | 128 (≈ 93.9 µg/mL) |  |  | 
11 | CN[C@H](CC(C)C)C(=O)N[C@H]1C(=O)N[C@@H](CC(N)=O)C(=O)N[C@H]2C(=O)N[C@H]3C(=O)N[C@H](C(=O)N[C@H](C(=O)O)c4cc(O)cc(O)c4-c4cc3ccc4O)[C@H](O)c3ccc(c(Cl)c3)Oc3cc2cc(c3O[C@@H]2O[C@H](CO)[C@@H](O)[C@H](O)[C@H]2O[C@H]2C[C@](C)(N)[C@H](O)[C@H](C)O2)Oc2ccc(cc2Cl)[C@H]1O [VANCOMYCIN] | 0.5 (≈ 0.725 µg/mL) | 0.25 (≈ 0.362 µg/mL) | 0.5 (≈ 0.725 µg/mL) | 64 (≈ 92.8 µg/mL) | 0.5 (≈ 0.725 µg/mL) | 128 (≈ 186 µg/mL) | 128 (≈ 186 µg/mL) | 128 (≈ 186 µg/mL) | > 128 | > 128 | > 128 |  |  | 
